Experimental data reported in US7674815B2, “Heteroaryl and benzyl amide compounds” (Hoffmann-La Roche Inc., priority 2006, dated 2010).

Biological target: T1, cholesteryl ester transfer protein (CETP) (Homo sapiens, UniProt P11597)
T1 construct: the source of CETP was human lipoprotein-deprived serum (LPDS); from tissue; host or cells: human lipoprotein-deprived serum (LPDS)
T1 sequence (P11597 18-493): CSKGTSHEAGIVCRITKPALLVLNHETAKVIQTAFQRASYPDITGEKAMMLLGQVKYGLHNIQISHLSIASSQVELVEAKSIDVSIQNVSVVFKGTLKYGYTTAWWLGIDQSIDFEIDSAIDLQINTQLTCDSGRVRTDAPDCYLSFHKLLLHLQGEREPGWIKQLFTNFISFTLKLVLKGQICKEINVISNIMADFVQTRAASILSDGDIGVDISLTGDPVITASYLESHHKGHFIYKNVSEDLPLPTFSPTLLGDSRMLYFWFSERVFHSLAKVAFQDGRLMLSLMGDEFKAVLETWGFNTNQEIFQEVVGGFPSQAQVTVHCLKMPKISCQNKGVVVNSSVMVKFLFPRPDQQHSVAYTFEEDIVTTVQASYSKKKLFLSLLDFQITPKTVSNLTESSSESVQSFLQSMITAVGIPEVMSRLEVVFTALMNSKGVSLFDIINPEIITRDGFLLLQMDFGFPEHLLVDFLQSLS
Assay: CETP inhibition SPA assay in the presence of plasma (CETP source human lipoprotein-deprived serum)
Assay type: biochemical
Conditions: source of CETP human lipoprotein-deprived serum (LPDS), radiolabeled cholesteryl ester transfer HDL to LDL
Procedure: Activity of CETP inhibitors was determined using a buffer assay system. Partially purified CETP transferred radiolabeled cholesteryl ester from HDL donor particles to biotin-labeled LDL acceptor particles. The reaction was stopped by addition of streptavidin-coupled scintillation proximity assay (SPA) beads. These beads captured the biotinylated acceptor particles and transferred radioactivity was measured. The assay system was purchased and performed according to manufacturer's recommendations (Amersham Biosciences). Inhibitory activity of compounds was determined as percentage of positive control activity containing CETP together with donor and acceptor particles. Serial dilution of compounds was performed in order to determine the IC50 values.
Activity of the compounds was subsequently measured in the presence of plasma using the same assay as described above except that the source of CETP was human lipoprotein-deprived serum (LPDS). Inhibitory activity of compounds was determined as percentage of positive control activity containing all the assay components except compound. Serial dilution of compounds was performed in order to determine the IC50 values.

Row | IC50 | Compound
1 | 7020 nM | O=C(c1cc(Cl)cc2cc[nH]c12)N(CCc1ccc(Cl)c(Cl)c1)Cc1cc2ccccc2o1 [Compound 1, 5-chloro-1H-indole-7-carboxylic acid benzofuran-2-ylmethyl-[2-(3,4-dichloro-phenyl)-ethyl]-amide]
2 | 56 nM | CNc1ncc(Cl)cc1C(=O)N(CCc1cccc(C(F)(F)F)c1)Cc1ccc(C(C)(C)C)s1 [Compound 53, N-(5-tert-butyl-thiophen-2-ylmethyl)-5-chloro-2-methylamino-N-[2-(3-trifluoromethyl-phenyl)-ethyl]-nicotinamide]
3 | 282 nM | CNc1cnc(Cl)cc1C(=O)N(CCc1ccc(Cl)c(Cl)c1)Cc1ccc(C(C)(C)C)nc1 [Compound 38, N-(6-tert-butyl-pyridin-3-ylmethyl)-2-chloro-N-[2-(3,4-dichloro-phenyl)-ethyl]-5-methylamino-isonicotinamide]
